# Experimental data as given in patent US5731326A, “PDGF antagonists II” (ZymoGenetics, Inc., priority 1996, dated 1998).
# Like-named read-outs stand apart in the source and are kept apart here.
# Biological target: T1, cell-surface PDGF receptors (Rattus norvegicus, UniProt Q05030)
# T1 construct: endogenous in cells; host or cells: rat smooth muscle cells (SMCs), monolayer culture
# Test: Inhibition of 125I-PDGF-BB binding to rat SMCs in the presence and absence of human serum
# Details: for CPM Bound, Binding Media + 10% Human Serum / CPM Bound, Binding Media: total CPM bound; for CPM Bound, Binding Media + 10% Human Serum: neg. control 1152; for CPM Bound, Binding Media: neg. control 1990
# Protocol: NNC92-0270 was analyzed for the ability to inhibit ^125 I-PDGF-BB binding to monolayers of rat SMCs. To assay for inhibition of ^125 I-PDGF-BB binding to rat SMCs, the SMCs were plated at approximately 20,000 cells/well in 24-well culture dishes. The cells were used for assay 2-7 days after plating. The test compound was diluted in binding media (500 ml Ham's F-12 (Gibco BRL), 12 ml 1M Hepes pH 7.4, 5 ml 100×PSN (Gibco BRL), 1 gm rabbit serum albumin (Sigma Chemical Co., St. Louis, Mo.) to the concentrations shown in Table 2, then added to the SMCs (1 ml/well) in triplicate. To the wells was then added 50 μl of a ^125 I-PDGF-BB stock solution. Binding media alone was used as the negative control, and the addition of 200 ng/ml of PDGF-BB was used to determine nonspecific binding for ^125 I-PDGF-BB. The cells were incubated for approximately 11/2 hours at 4° C., then washed with binding media to remove unbound ligand. The cells were then incubated with extraction buffer (20 mM Tris-HCl, pH 8.0, 100 mM NaCl, 1 mM EDTA, 0.5% Nonident P-40, 0.5% sodium deoxycholate, 10 mM NaI, 1% bovine serum albumin), and the extracts were harvested and counted in a gamma counter. The data are presented as specific cpm bound for ^125 I-PDGF-BB. Nonspecific binding, determined by the addition of 200 ng/ml of unlabeled PDGF-BB, was 853 cpm, and has been subtracted from the data presented.
# NNC92-0270 was subsequently analyzed for its ability to inhibit ^125 I-PDGF-BB binding to rat SMCs when the radioligand was added to the cells in the presence of 10% human serum. The rat SMCs were plated into 24-well culture dishes and assayed as described above. The test compound was diluted to the concentrations shown in Table 3 in either binding media alone, or binding media containing 10% human serum, and 1 ml aliquots added to the test cells in triplicate. Fifty microliters of a 20×stock solution of ^125 I-PDGF-BB was added to each well. The cells were incubated for 2.5 hours at 4 ° C., washed with binding media to remove unbound ligand, and harvested with extraction buffer. The extracts were then counted in a gamma counter to determine CPM bound. […] It should be noted that the binding of ^125 I-PDGF-BB was lower in the negative control sample containing the human serum, over the negative control sample with binding media alone. The results are presented as total CPM bound.
# T1 sequence (Q05030 32-1097): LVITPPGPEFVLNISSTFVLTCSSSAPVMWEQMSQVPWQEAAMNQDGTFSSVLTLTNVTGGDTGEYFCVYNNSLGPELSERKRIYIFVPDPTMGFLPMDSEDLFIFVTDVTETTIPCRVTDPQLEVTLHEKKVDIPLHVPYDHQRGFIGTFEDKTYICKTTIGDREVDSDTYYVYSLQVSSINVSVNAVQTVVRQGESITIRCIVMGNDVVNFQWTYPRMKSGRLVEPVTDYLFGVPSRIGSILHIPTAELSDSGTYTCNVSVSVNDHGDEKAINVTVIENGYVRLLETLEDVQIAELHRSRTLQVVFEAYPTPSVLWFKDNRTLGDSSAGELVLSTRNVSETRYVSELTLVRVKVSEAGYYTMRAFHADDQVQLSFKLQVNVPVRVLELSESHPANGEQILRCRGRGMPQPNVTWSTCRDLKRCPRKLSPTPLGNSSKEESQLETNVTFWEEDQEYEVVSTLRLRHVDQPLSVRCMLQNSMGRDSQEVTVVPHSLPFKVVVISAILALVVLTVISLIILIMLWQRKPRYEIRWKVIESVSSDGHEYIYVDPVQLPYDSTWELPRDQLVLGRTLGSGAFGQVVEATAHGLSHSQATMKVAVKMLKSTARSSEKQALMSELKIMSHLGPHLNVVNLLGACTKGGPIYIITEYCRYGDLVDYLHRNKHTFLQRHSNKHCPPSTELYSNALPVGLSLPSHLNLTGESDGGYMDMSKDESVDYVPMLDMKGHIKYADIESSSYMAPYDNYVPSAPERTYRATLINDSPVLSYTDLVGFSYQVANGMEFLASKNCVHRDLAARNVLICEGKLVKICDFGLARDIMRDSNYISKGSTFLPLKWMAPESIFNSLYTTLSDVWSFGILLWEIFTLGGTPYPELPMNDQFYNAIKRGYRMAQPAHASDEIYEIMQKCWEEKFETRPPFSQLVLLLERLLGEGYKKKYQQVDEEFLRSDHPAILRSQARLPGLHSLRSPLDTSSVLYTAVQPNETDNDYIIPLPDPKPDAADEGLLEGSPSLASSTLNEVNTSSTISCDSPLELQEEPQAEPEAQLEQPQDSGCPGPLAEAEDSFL
smiles,measurement,setting,value
O=C(NN1CCCCC1)NS(=O)(=O)c1ccc(CCNC(=O)c2[nH]c3ccccc3c2OCc2ccccc2)cc1 [NNC92-0270],remaining activity at 12.5 µM,"12.5 μM, 10% human serum, read-out: % CB (% Control Binding), Binding Media + 10% Human Serum",30%
same,"CPM Bound, Binding Media + 10% Human Serum","12.5 μM, 10% human serum",349 CPM
same,remaining activity at 12.5 µM,"12.5 μM, binding media alone, read-out: % CB (% Control Binding), Binding Media",36%
same,"CPM Bound, Binding Media","12.5 μM, binding media alone",722 CPM
same,remaining activity at 25 µM,"25 μM, 10% human serum, read-out: % CB (% Control Binding), Binding Media + 10% Human Serum",21%
same,"CPM Bound, Binding Media + 10% Human Serum","25 μM, 10% human serum",244 CPM
same,remaining activity at 25 µM,"25 μM, binding media alone, read-out: % CB (% Control Binding), Binding Media",30%
same,"CPM Bound, Binding Media","25 μM, binding media alone",605 CPM
same,remaining activity at 50 µM,"50 μM, 10% human serum, read-out: % CB (% Control Binding), Binding Media + 10% Human Serum",14%
same,"CPM Bound, Binding Media + 10% Human Serum","50 μM, 10% human serum",162 CPM
same,remaining activity at 50 µM,"50 μM, binding media alone, read-out: % CB (% Control Binding), Binding Media",23%
same,"CPM Bound, Binding Media","50 μM, binding media alone",467 CPM
same,Potency for inhibiting 125I-PDGF-BB binding in 10% human serum compared to binding media alone (in words),rat SMCs,approximately equal potency
